Patent US8709811B2, “Materials and methods for synthesis of a flavor and aroma volatile in plants” (University of Florida Research Foundation, Inc., priority 2003, dated 2014)
“Also recorded” adds a separate entry of the source. Each block holds one molecule with its values, some of them ahead of it.

How the values were obtained:
[1] = concentration X humans' ability to detect; cited from earlier work
[2] = trained expert panel; cited from earlier work
[3] = tested on: 2-phenylethanol dehydrogenase (full-length cLET2M9); format: biochemical, tomato; conditions: GST-tagged enzyme, decrease in OD340
Procedure: A full-length 2-phenylethanol dehydrogenase cDNA was cloned by 5′ RACE from tomato fruit cDNA using primer 5′-[…]-3′ (SEQ ID NO: 3). Following sequence analysis the full-length cDNA was obtained by PCR. The coding region was cloned into vector pDEST15 containing a GST tag (Invitrogen) by recombination, and transformed into E. coli strain BL21-SI (Invitrogen) for inducible protein expression. Enzyme activity of crude E. coli extracts was determined by the method of Larroy et al. (2002) using phenylacetaldehyde, cinnamaldehyde or vanillin as a substrate.
The 2-phenylethanol dehydrogenase coding region of the full-length cLET2M9 and the related cLEG71F12 were cloned in vector pDEST15 with a GST tag and transformed into E. coli BL21-SI cells for inducible expression. The production of recombinant protein in E. coli was determined by Western blotting with an anti-GST antibody.

[4] = target: LePEDH (tomato 2-phenylethanol dehydrogenase, full-length cLET2M9) (Solanum lycopersicum, UniProt A6N6K7); assay: Alcohol dehydrogenase activity of E. coli expressed His-tagged LePEDH on phenylacetaldehyde and related substrates (Km); format: biochemical; conditions: His tag
Procedure: The 2-phenylethanol dehydrogenase coding region of the full-length cLET2M9 was cloned in vector pDEST17 with a His tag and transformed into E. coli BL21-AI cells for inducible expression. Alcohol dehydrogenase activities on phenylacetaldehyde and several related substrates were determined.

Sequence of LePEDH (tomato 2-phenylethanol dehydrogenase, full-length cLET2M9) (A6N6K7 entry or part of it): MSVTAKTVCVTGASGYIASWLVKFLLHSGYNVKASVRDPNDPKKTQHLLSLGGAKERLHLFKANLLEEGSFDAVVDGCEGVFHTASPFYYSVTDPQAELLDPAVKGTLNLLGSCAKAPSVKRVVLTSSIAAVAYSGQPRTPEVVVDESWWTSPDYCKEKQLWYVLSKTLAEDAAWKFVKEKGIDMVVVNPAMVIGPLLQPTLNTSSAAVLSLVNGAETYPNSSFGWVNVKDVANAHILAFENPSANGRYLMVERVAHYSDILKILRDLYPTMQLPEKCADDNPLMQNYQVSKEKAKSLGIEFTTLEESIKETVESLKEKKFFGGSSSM

Compound: CC/C=C\CC=O [cis-3-Hexenal]
Log odor units [1]: 3.7
Odor Characteristics [2]: Tomato/green

Compound: COC(=O)c1ccccc1O [Methyl salicylate]
Log odor units [1]: 0.08
Odor Characteristics [2]: wintergreen

Compound: CCCC/C=C/C=O [trans-2-Heptenal]
Log odor units [1]: 0.7
Odor Characteristics [2]: Green

Compound: CC(=O)/C=C/C1=C(C)CCCC1(C)C [β-ionone]
Log odor units [1]: 2.8
Odor Characteristics [2]: fruity/floral

Compound: O=CCc1ccccc1 [Phenylacetaldehyde]
Log odor units [1]: 0.6
Alcohol dehydrogenase activity level as substrate [3]: highest level of activity; also recorded: Highest activity levels
Odor Characteristics [2]: floral/alcohol
Alcohol dehydrogenase activity level as substrate [4]: highest level of activity

Alcohol dehydrogenase activity level as substrate [4]: no detectable activity
Compound: O=Cc1ccccc1O [salicylaldehyde]

Compound: CC(C)CCO [3-Methylbutanol]
Log odor units [1]: 0.2
Odor Characteristics [2]: earthy, musty

Compound: CC(C)Cc1nccs1 [2-Isobutylthiazole]
Log odor units [1]: 1.0
Odor Characteristics [2]: Tomato vine

Compound: CC(=O)CCC=C(C)C [6-Methyl-5-hepten-2-one]
Log odor units [1]: 0.4
Odor Characteristics [2]: fruity, floral

Compound: O=[N+]([O-])CCc1ccccc1 [1-nitro-2-Phenylethane]
Log odor units [1]: 0.9
Odor Characteristics [2]: musty, earthy

Compound: C=CC(=O)CC [1-Penten-3-one]
Log odor units [1]: 2.7
Odor Characteristics [2]: fruity; also recorded: floral/green

Compound: CCC/C=C/C=O [trans-2-Hexenal]
Log odor units [1]: 1.2
Odor Characteristics [2]: Green

Compound: O=Cc1ccccc1 [Benzaldehyde]
Alcohol dehydrogenase activity level as substrate [4]: Lower activity levels

Compound: CCCCCC=O [Hexanal]
Log odor units [1]: 2.8
Odor Characteristics [2]: green/grassy

Compound: COc1cc(C=O)ccc1O [vanillin]
Alcohol dehydrogenase activity level as substrate [3]: negligible activity

Compound: C/C=C/C(=O)C1=C(C)C=CCC1(C)C [β-Damascenone]
Log odor units [1]: 2.7
Odor Characteristics [2]: Fruity

Compound: OCCc1ccccc1 [2-Phenylethanol]
Log odor units [1]: 0.3
Odor Characteristics [2]: Nutty

Compound: O=C/C=C/c1ccccc1 [Cinnamaldehyde]
Alcohol dehydrogenase activity level as substrate [3]: Lower activity levels
Alcohol dehydrogenase activity level as substrate [4]: Lower activity levels
